Experimental data reported in PubChem BioAssay AID2743 (NMMLSC, 2010).
Calls of active or inactive are those of the source.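 How the source made its calls: active means fitted half-maximal concentration for change in GFP expression of 33 µM or less; inactive means the rest.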

Assay: concentration-dependent AGP1-GFP change, TOR pathway – cell-based, flow cytometry, S. cerevisiae, MLPCN hits, dose response (AID 2743)
Conditions: S. cerevisiae AGP1-GFP strain, flow cytometry GFP, 3 h; at 33 µM (top of the series)
With `COc1ccc(NC(=O)/C(C#N)=C/c2ncc([N+](=O)[O-])n2C)c(OC)c1` the GFP fluorescence (kMESF) was 45.2 kMESF (inactive). With `O=C(OCC(=O)N1CCN(C(=O)c2ccco2)CC1)c1cc(-c2ccc(Cl)c(Cl)c2Cl)nc2ccccc12` the GFP fluorescence (kMESF) was 50.9 kMESF (inactive). With `CC(C)(C)c1nnc(N/N=C/c2cc(Br)ccc2O)n(N)c1=O` the GFP fluorescence (kMESF) was 34.2 kMESF (inactive). With `COc1ccc(C(=O)NC(=S)NNC(=O)c2cnccn2)cc1OC` the GFP fluorescence (kMESF) was 30.2 kMESF (inactive). With `C#CCOCCOCCOCCNc1nc(N2CCN(C(=O)CCCCCCCCCCNC(=O)[C@H](CCCCN)n3cc(CCO)nn3)CC2)nc(N2CCN(C(=O)CCCCCCCCCCNC(=O)[C@H](CCCCN)n3cc(C[C@@H](C)CC)nn3)CC2)n1` the GFP fluorescence (kMESF) was 51.4 kMESF (inactive). With `COc1ccc(N2C(=O)/C(=C/c3cccs3)C(=O)NC2=S)cc1` the GFP fluorescence (kMESF) was 27.3 kMESF (inactive). With `O=C1N(c2ccccc2C(F)(F)F)O[C@@]1(c1ccccc1)C1CCCCC1` the GFP fluorescence (kMESF) was 36.2 kMESF (inactive). In the case of `CCCCOc1ccc(C(=O)NNC(=S)NC(=O)CC)cc1`, the GFP fluorescence (kMESF) is reported as 39.6 kMESF (inactive). For `O=C(COc1ccccc1)N1CCN(c2ncnc3c2cnn3-c2ccccc2)CC1`, the GFP fluorescence (kMESF) was 35.1 kMESF (inactive). For `CC(C)Cn1c(=O)c(C(=O)Nc2ccncc2)c(O)c2ccccc21`, the GFP fluorescence (kMESF) was 16.1 kMESF (inactive). For `CC1=C(C)/C(=N\OS(=O)(=O)c2ccccc2)C=CC1=O`, the GFP fluorescence (kMESF) was 41.6 kMESF (inactive). For `COc1ccccc1NC1=C(Cl)C(=O)N(c2ccccc2)C1=O`, the GFP fluorescence (kMESF) was 33 kMESF (inactive). With `O=C(NC(=S)NNC(=O)[C@H]1C[C@@H]1c1ccccc1)c1cccc(F)c1` the GFP fluorescence (kMESF) was 30.4 kMESF (inactive). With `Cc1ccnc(N2C(=O)c3cccc4c([N+](=O)[O-])ccc(c34)C2=O)c1` the GFP fluorescence (kMESF) was 54.7 kMESF (inactive). In the case of `COc1ccc([C@@]2(C(C)C)ON(c3ccccc3C(F)(F)F)C2=O)cc1`, the GFP fluorescence (kMESF) is reported as 39.4 kMESF (inactive). In the case of `O=C(/C=C/c1ccccc1)NC(=S)NNC(=O)Cc1cccs1`, the GFP fluorescence (kMESF) is reported as 41.4 kMESF (inactive). With `CCOC(=O)C1=C(O)c2ccccc2C(=O)/C1=C\c1ccc(C)cc1` the GFP fluorescence (kMESF) was -4.85 kMESF (inactive). With `Cc1cc(C)c(C)c(S(=O)(=O)ON2C(=O)c3ccccc3C2=O)c1C` the GFP fluorescence (kMESF) was 40 kMESF (inactive). In the case of `CCN(CC)c1ccc2cc(-c3nc(-c4ccc(OC)cc4)cs3)c(=O)oc2c1`, the GFP fluorescence (kMESF) is reported as 40.6 kMESF (inactive). With `CC(=O)OC[C@]12CC[C@H]3[C@@](C)(CC[C@H]4C(C)(C)CCC[C@]34C)[C@@H]1C[C@H](C1=CC(=O)O[C@@H]1OC(C)=O)O2` the GFP fluorescence (kMESF) was 31 kMESF (inactive). With `N/C(Cc1ccc(Cl)cc1)=N\OC(=O)c1cccc2ccccc12` the GFP fluorescence (kMESF) was 33 kMESF (inactive). In the case of `CCc1ccc(OCC(=O)NNC(=S)NC(=O)C2CC2)c(Br)c1`, the GFP fluorescence (kMESF) is reported as 45.2 kMESF (inactive). With `C=CCOc1ccc(C(=O)/C=C2/C(=O)Nc3ccccc32)cc1` the GFP fluorescence (kMESF) was 46.5 kMESF (inactive). With `Cc1ccc(C(c2cc(Cl)c3cccnc3c2O)N2CCN(C)CC2)cc1` (centres undefined) the GFP fluorescence (kMESF) was 27.9 kMESF (inactive). For `COc1ccc(C(=O)NC(=S)NNC(=O)c2cnccn2)cc1`, the GFP fluorescence (kMESF) was 42.8 kMESF (inactive). With `Cc1ccc(S(=O)(=O)c2ccc([N+](=O)[O-])cn2)cc1` the GFP fluorescence (kMESF) was 40.7 kMESF (inactive). With `CCCCC(=O)NC(=S)NNC(=O)CCc1ccccc1` the GFP fluorescence (kMESF) was 28.1 kMESF (inactive). For `CC(=O)N(C1=C(Cl)C(=O)c2ccccc2C1=O)C1CCCCC1`, the GFP fluorescence (kMESF) was -0.34 kMESF (inactive). For `O=c1oc2cc(Oc3c([N+](=O)[O-])cc(C(F)(F)F)cc3[N+](=O)[O-])ccc2c2c1CCCC2`, the GFP fluorescence (kMESF) was 40 kMESF (inactive). For `O=C(c1ccccc1)c1ccccc1N1C(=O)C=CC1=O`, the GFP fluorescence (kMESF) was 38 kMESF (inactive). With `O=C(c1ccc([N+](=O)[O-])o1)N1CCN(c2nc3c(F)cc(F)cc3s2)CC1` the GFP fluorescence (kMESF) was 30.3 kMESF (inactive). With `N#C/C(=C\c1ccccn1)c1nc2ccccc2s1` the GFP fluorescence (kMESF) was 41.8 kMESF (inactive). In the case of `CC(C)[C@]1(c2ccccc2)ON(c2ccccc2C(F)(F)F)C1=O`, the GFP fluorescence (kMESF) is reported as 34.2 kMESF (inactive). For `COc1cc(/C=C2\C(=O)N(CCC#N)N=C2C)c(Br)cc1OC(C)C`, the GFP fluorescence (kMESF) was 43.5 kMESF (inactive). For `CCCCCCCCn1sccc1=O`, the GFP fluorescence (kMESF) was 31.5 kMESF (inactive). In the case of `Cc1ccccc1OCCOC(=O)c1ccc(S(=O)(=O)N2CCCC2)cc1`, the GFP fluorescence (kMESF) is reported as 38.1 kMESF (inactive). With `O=C1C2C3C=CC(CO)(O3)C2C(=O)N1c1ccc(-c2ccccc2)cc1` (centres undefined) the GFP fluorescence (kMESF) was 40.8 kMESF (inactive). With `O=C(/C=C/c1ccccc1[N+](=O)[O-])c1ccccc1Br` the GFP fluorescence (kMESF) was 50.7 kMESF (inactive). With `Cc1c(NC2=C(Cl)C(=O)N(c3ccccc3Cl)C2=O)c(=O)n(-c2ccccc2)n1C` the GFP fluorescence (kMESF) was 38.1 kMESF (inactive). With `COc1cc(/C=C2\C(=O)ON=C2c2ccccc2)cc(Br)c1O` the GFP fluorescence (kMESF) was 28.7 kMESF (inactive). With `NC(=O)COc1ccc(C(=O)/C=C2/C(=O)Nc3ccccc32)cc1` the GFP fluorescence (kMESF) was 46.2 kMESF (inactive). In the case of `ClC(Cl)(c1nnnn1-c1ccccc1)c1nnnn1-c1ccccc1`, the GFP fluorescence (kMESF) is reported as 35.1 kMESF (inactive). For `O=C(O)c1ccccc1SC1CC(=O)N(c2ccc3c(c2)OCO3)C1=O` (centres undefined), the GFP fluorescence (kMESF) was 47.9 kMESF (inactive). In the case of `CCCCc1ccc(NC(=O)CC(C)=O)cc1`, the GFP fluorescence (kMESF) is reported as 37.2 kMESF (inactive).
